{
  "source": "patent US20180298405A1",
  "about": "“METHODS AND COMPOSITIONS TO INCREASE HUMAN SOMATIC CELL NUCLEAR TRANSFER (SCNT) EFFICIENCY BY REMOVING HISTONE H3-LYSINE TRIMETHYLATION, AND DERIVATION OF HUMAN NT-ESC” (CHILDREN'S MEDICAL CENTER CORPORATION, priority 2015, published 2018)",
  "system": "reprogramming resistant regions (RRRs) / ZGA genes",
  "assay": "RNA-seq of late 8-cell human SCNT embryos with or without KDM4A mRNA injection (ZGA of RRRs, KDM4A-responsive genes)",
  "assay_type": "cell-based",
  "description": "A sliding window (size 20 kb, step size 10 kb) was used to assess the genome-wide expression level of 4-cell and 8-cell human embryos. For each window, the expression level was quantified with normalized RPM (reads per millions of uniquely mapped reads). […] These activated regions were classed into three groups based on their expression differences in human SCNT and IVF 8-cell embryos.\nThe SCNT embryos used for ZGA analysis were generated using oocytes donated by a single healthy person (#64) and dermal fibroblast cells from an AMD patient (DFB-8). SCNT and IVF embryos were cultured up to late 8-cell stage, when the compaction of blastomeres is initiated, then they were treated briefly with acid Tyrode solution to remove zona pellucida. To prepare for the 8-cell SCNT embryo, oocytes from a single oocyte donor, and skin fibroblast cells from a single somatic nuclear donor were used. All the procedures are the same as described in the “Human SCNT procedure and KMD4A mRNA injection” section. Only embryos that reached the late 8-cell stage synchronically 74 hours post activation were collected and used for this experiment.\nFor preparation of the control IVF embryos, several donated early 8-cell stage IVF embryos were thawed and cultured for 5-7 hours to allow them to reach late 8-cell stage before being processed. After removal of the zona pellucida, the denuded embryos were washed 3 times in PBS, loaded into RNAse and DNAse free PCR tubes, spin downed, and snap frozen in liquid nitrogen. Then, they were kept at −80° C. until use. As controls, dermal fibroblast cells of somatic nuclear donors were also prepared. Those fibroblast cells were cultured in a 25 cm^2 flask in DMEM 10% FBS, and approximately 10,000 cells/donor were collected, snap frozen, and stored at −80° C. until use.\nFive 8-cell embryos for each group were directly lysed and used for cDNA synthesis using SMART-Seq v4 Ultra Low Input RNA Kit (Clontech). For MEF donor, 10 ng total RNA was used for cDNA synthesis using SMART-Seq v4 Ultra Low Input RNA Kit. After amplification, the cDNA samples were fragmented using Covaris sonicator M220 to an average size of 150 bp (Covaris). Sequencing libraries were made with the fragmented DNA using NEBNext Ultra DNA Library Prep Kit for Illumina according to manufacturer's instruction (New England Biolabs) with different barcodes. For each RNA-seq analysis of hESCs, 1 μg total RNA was used for mRNA purification. Barcoded RNA-seq libraries were generated using NEBNext Ultra Directional RNA Library Prep Kit for Illumina (New England Biolabs). Single end 50 bp sequencing was performed on a HiSeq 2500 sequencer (Illumina). Sequencing reads were mapped to the human genome (hg19) with Tophat2. All programs were performed with default settings (unless otherwise specified). At least 22 million uniquely mapped reads were obtained for each sequencing library, and subsequently assembled into transcripts guided by the reference annotation (Refseq gene models) with Cufflinks v2.0.2. Expression level of each gene was quantified with normalized FPKM (fragments per kilobase of exon per million mapped fragments). Statistical analyses were performed with R (available at: “www.r-project.org/”). Independent 2 group Wilcoxon rank sum tests were used to compare distributions using the wilcox.test function in R. Pearson's r coefficient was calculated using the cor function with default parameters. The hierarchical clustering analysis of the global gene expression pattern in different samples was carried out using heatmap.2 function (gplots package) in R.",
  "key": {"[1]": {"settings": "8-cell SCNT embryos, FC>2 versus non-injected"}},
  "data": [
    {"substance": "KDM4A mRNA: in vitro transcribed mRNA of full length human KDM4A/JHDM3A cDNA, an H3K9me3 demethylase (SEQ ID NO: 1)", "values": [
      {"measurement": "fraction of the 318 RRRs markedly up-regulated", "setting": "[1]", "result": 50, "unit": "%"},
      {"measurement": "number of the 318 RRRs markedly up-regulated", "setting": "[1]", "result": 158},
      {"measurement": "number of genes significantly up-regulated (KDM4A-responsive genes)", "setting": "8-cell SCNT embryos, FPKM>5, FC>2", "result": 206},
      {"measurement": "12-Sep Fold Change (log2) [KDM4A SCNT/Control SCNT]", "setting": "8-cell embryos", "result": 2, "unit": "log2"},
      {"measurement": "AASDH Fold Change (log2) [KDM4A SCNT/Control SCNT]", "setting": "8-cell embryos", "result": 1.19, "unit": "log2"},
      {"measurement": "ACBD5 Fold Change (log2) [KDM4A SCNT/Control SCNT]", "setting": "8-cell embryos", "result": 1.32, "unit": "log2"},
      {"measurement": "ALG5 Fold Change (log2) [KDM4A SCNT/Control SCNT]", "setting": "8-cell embryos", "result": 1.89, "unit": "log2"},
      {"measurement": "ALPPL2 Fold Change (log2) [KDM4A SCNT/Control SCNT]", "setting": "8-cell embryos", "result": 1.25, "unit": "log2"},
      {"measurement": "APOC1P1 Fold Change (log2) [KDM4A SCNT/Control SCNT]", "setting": "8-cell embryos", "result": 1.03, "unit": "log2"},
      {"measurement": "ATP5J2-PTCD1 Fold Change (log2) [KDM4A SCNT/Control SCNT]", "setting": "8-cell embryos", "result": 5.53, "unit": "log2"},
      {"measurement": "BEX2 Fold Change (log2) [KDM4A SCNT/Control SCNT]", "setting": "8-cell embryos", "result": 1.05, "unit": "log2"},
      {"measurement": "BLVRB Fold Change (log2) [KDM4A SCNT/Control SCNT]", "setting": "8-cell embryos", "result": 1.56, "unit": "log2"},
      {"measurement": "BTAF1 Fold Change (log2) [KDM4A SCNT/Control SCNT]", "setting": "8-cell embryos", "result": 1.93, "unit": "log2"},
      {"measurement": "BTK Fold Change (log2) [KDM4A SCNT/Control SCNT]", "setting": "8-cell embryos", "result": 1.09, "unit": "log2"},
      {"measurement": "BUD31 Fold Change (log2) [KDM4A SCNT/Control SCNT]", "setting": "8-cell embryos", "result": 1.19, "unit": "log2"},
      {"measurement": "C1D Fold Change (log2) [KDM4A SCNT/Control SCNT]", "setting": "8-cell embryos", "result": 1.67, "unit": "log2"},
      {"measurement": "C2orf74 Fold Change (log2) [KDM4A SCNT/Control SCNT]", "setting": "8-cell embryos", "result": 1.28, "unit": "log2"},
      {"measurement": "C11orf67 Fold Change (log2) [KDM4A SCNT/Control SCNT]", "setting": "8-cell embryos", "result": 1.34, "unit": "log2"},
      {"measurement": "C12orf60 Fold Change (log2) [KDM4A SCNT/Control SCNT]", "setting": "8-cell embryos", "result": 1.78, "unit": "log2"},
      {"measurement": "C16orf91 Fold Change (log2) [KDM4A SCNT/Control SCNT]", "setting": "8-cell embryos", "result": 1.24, "unit": "log2"},
      {"measurement": "C17orf89 Fold Change (log2) [KDM4A SCNT/Control SCNT]", "setting": "8-cell embryos", "result": 1.09, "unit": "log2"},
      {"measurement": "C18orf56 Fold Change (log2) [KDM4A SCNT/Control SCNT]", "setting": "8-cell embryos", "result": 1.43, "unit": "log2"},
      {"measurement": "C20orf7 Fold Change (log2) [KDM4A SCNT/Control SCNT]", "setting": "8-cell embryos", "result": 2.14, "unit": "log2"},
      {"measurement": "CAB39L Fold Change (log2) [KDM4A SCNT/Control SCNT]", "setting": "8-cell embryos", "result": 1.23, "unit": "log2"},
      {"measurement": "CCAR1 Fold Change (log2) [KDM4A SCNT/Control SCNT]", "setting": "8-cell embryos", "result": 1.15, "unit": "log2"},
      {"measurement": "CCDC86 Fold Change (log2) [KDM4A SCNT/Control SCNT]", "setting": "8-cell embryos", "result": 1.1, "unit": "log2"},
      {"measurement": "CCL2 Fold Change (log2) [KDM4A SCNT/Control SCNT]", "setting": "8-cell embryos", "result": 3.05, "unit": "log2"},
      {"measurement": "CCL15 Fold Change (log2) [KDM4A SCNT/Control SCNT]", "setting": "8-cell embryos", "result": 2.82, "unit": "log2"},
      {"measurement": "CELA3B Fold Change (log2) [KDM4A SCNT/Control SCNT]", "setting": "8-cell embryos", "result": 1.63, "unit": "log2"},
      {"measurement": "CENPC1 Fold Change (log2) [KDM4A SCNT/Control SCNT]", "setting": "8-cell embryos", "result": 1.1, "unit": "log2"},
      {"measurement": "CLC Fold Change (log2) [KDM4A SCNT/Control SCNT]", "setting": "8-cell embryos", "result": 3.69, "unit": "log2"},
      {"measurement": "CLDN6 Fold Change (log2) [KDM4A SCNT/Control SCNT]", "setting": "8-cell embryos", "result": 1.65, "unit": "log2"},
      {"measurement": "CLK4 Fold Change (log2) [KDM4A SCNT/Control SCNT]", "setting": "8-cell embryos", "result": 1.21, "unit": "log2"},
      {"measurement": "CNKSR3 Fold Change (log2) [KDM4A SCNT/Control SCNT]", "setting": "8-cell embryos", "result": 1.48, "unit": "log2"},
      {"measurement": "CNPY4 Fold Change (log2) [KDM4A SCNT/Control SCNT]", "setting": "8-cell embryos", "result": 1.77, "unit": "log2"},
      {"measurement": "COX7B2 Fold Change (log2) [KDM4A SCNT/Control SCNT]", "setting": "8-cell embryos", "result": 3.15, "unit": "log2"},
      {"measurement": "COX17 Fold Change (log2) [KDM4A SCNT/Control SCNT]", "setting": "8-cell embryos", "result": 1.44, "unit": "log2"},
      {"measurement": "CSAG1 Fold Change (log2) [KDM4A SCNT/Control SCNT]", "setting": "8-cell embryos", "result": 3.27, "unit": "log2"},
      {"measurement": "CSTF3 Fold Change (log2) [KDM4A SCNT/Control SCNT]", "setting": "8-cell embryos", "result": 1.29, "unit": "log2"},
      {"measurement": "CUL2 Fold Change (log2) [KDM4A SCNT/Control SCNT]", "setting": "8-cell embryos", "result": 1.29, "unit": "log2"},
      {"measurement": "CXorf61 Fold Change (log2) [KDM4A SCNT/Control SCNT]", "setting": "8-cell embryos", "result": 2.18, "unit": "log2"},
      {"measurement": "DDX26B Fold Change (log2) [KDM4A SCNT/Control SCNT]", "setting": "8-cell embryos", "result": 1.14, "unit": "log2"},
      {"measurement": "DEFB122 Fold Change (log2) [KDM4A SCNT/Control SCNT]", "setting": "8-cell embryos", "result": 1.06, "unit": "log2"},
      {"measurement": "DLEU7 Fold Change (log2) [KDM4A SCNT/Control SCNT]", "setting": "8-cell embryos", "result": 4.91, "unit": "log2"},
      {"measurement": "DNASE2 Fold Change (log2) [KDM4A SCNT/Control SCNT]", "setting": "8-cell embryos", "result": 1.11, "unit": "log2"},
      {"measurement": "DRAM1 Fold Change (log2) [KDM4A SCNT/Control SCNT]", "setting": "8-cell embryos", "result": 1.6, "unit": "log2"},
      {"measurement": "ECE2 Fold Change (log2) [KDM4A SCNT/Control SCNT]", "setting": "8-cell embryos", "result": 1.09, "unit": "log2"},
      {"measurement": "EIF1AD Fold Change (log2) [KDM4A SCNT/Control SCNT]", "setting": "8-cell embryos", "result": 1.18, "unit": "log2"},
      {"measurement": "ELL2 Fold Change (log2) [KDM4A SCNT/Control SCNT]", "setting": "8-cell embryos", "result": 1.01, "unit": "log2"},
      {"measurement": "FAM9A Fold Change (log2) [KDM4A SCNT/Control SCNT]", "setting": "8-cell embryos", "result": 3.83, "unit": "log2"},
      {"measurement": "FAM19A3 Fold Change (log2) [KDM4A SCNT/Control SCNT]", "setting": "8-cell embryos", "result": 2.58, "unit": "log2"}
    ]}
  ]
}
